{
  "source": "patent US20060069132A1",
  "about": "“Azolecarboxamide herbicides” (priority 2004, published 2006)",
  "key": {"lambsquarters": {"test_system": "lambsquarters", "assay": "Test B pre-/postemergence herbicide test", "assay_type": "in vivo, Chenopodium album", "settings": "scale 0 (no effect) to 100 (complete control)", "summary_of_the_method": "(§1)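 Pre: seeds sown, then sprayed. Post: 1–4-leaf plants (2–18 cm) sprayed at the same time. Paddy: flooded, treated at 2-leaf stage. Formulation: non-phytotoxic solvent with surfactant. Greenhouse 13–15 days; visual 0–100 score relative to controls.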"}, "ducksalad [1]": {"test_system": "ducksalad", "assay": "Test B flooded paddy test", "assay_type": "in vivo, Heteranthera limosa", "settings": "1000 g ai/ha, scale 0 to 100 (0 no effect, 100 complete control)", "summary_of_the_method": "(§2)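 Visual ratings, 0 (no effect) to 100 (complete control), made versus controls after 13–15 d greenhouse. Paddy plants treated at 2-leaf stage; postemergence plants at 1- to 4-leaf stage, 2–18 cm tall.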"}, "morningglory": {"test_system": "morningglory", "assay": "Test B pre-/postemergence herbicide test", "assay_type": "in vivo, Ipomoea coccinea", "settings": "for Morningglory plant response rating: scale 0 (no effect) to 100 (complete control)", "summary_of_the_method": "(§3)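 Visual rating, 0 (no effect) to 100 (complete control), versus untreated controls after 13–15 d in greenhouse. Pre- and postemergence applications (postemergence plants 2–18 cm, 1–4 leaves); flooded paddy arm at 2-leaf stage. Compounds in non-phytotoxic solvent plus surfactant.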"}, "[2]": {"test_system": "small flower umbrella sedge", "assay": "Test B flooded paddy test", "assay_type": "in vivo, Cyperus difformis", "settings": "1000 g ai/ha, scale 0 to 100 (0 no effect, 100 complete control)", "summary_of_the_method": "as §2"}, "wheat": {"test_system": "wheat", "assay": "Test B postemergence herbicide test", "assay_type": "in vivo, Triticum aestivum", "design": "key to Wheat plant response rating: 0 = no effect, 100 = complete control", "summary_of_the_method": "(§4)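 After treating 2-leaf paddy plants or 2–18 cm postemergence plants (1 to 4 leaves) with formulated chemical, researchers kept them in a greenhouse for 13–15 days. Effects were judged visually versus controls: 0 indicates none, 100 total control.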"}, "[3]": {"test_system": "smallflower umbrella sedge", "assay": "Test C flooded paddy test", "assay_type": "in vivo, Cyperus difformis"}, "giant foxtail": {"test_system": "giant foxtail", "assay": "Test B pre-/postemergence herbicide test", "assay_type": "in vivo, Setaria faberi", "settings": "for Foxtail, Giant plant response rating: postemergence", "summary_of_the_method": "as §1"}, "Surinam grass": {"test_system": "Surinam grass", "assay": "Test B pre-/postemergence herbicide test", "assay_type": "in vivo, Urochloa decumbens", "settings": "for Surinam Grass plant response rating: scale 0 (no effect) to 100 (complete control)", "summary_of_the_method": "as §1"}, "velvetleaf": {"test_system": "velvetleaf", "assay": "Test B pre-/postemergence herbicide test", "assay_type": "in vivo, Abutilon theophrasti", "settings": "for Velvetleaf plant response rating: scale 0 (no effect) to 100 (complete control)", "summary_of_the_method": "as §1"}, "rice [4]": {"test_system": "rice", "assay": "Test B flooded paddy test", "assay_type": "in vivo, Oryza sativa", "settings": "1000 g ai/ha, scale 0 to 100 (0 no effect, 100 complete control)", "summary_of_the_method": "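Plants grow to 1- to 4-leaf stage (2–18 cm) for postemergence spraying, or to 2-leaf stage for the paddy test. Formulated compound is applied. Greenhouse holding lasts 13–15 days. Response is scored visually relative to controls, 0 no effect to 100 complete control; a dash means no result.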"}, "wild oat": {"test_system": "wild oat", "assay": "Test B postemergence herbicide test", "assay_type": "in vivo, Avena fatua", "settings": "scale 0 (no effect) to 100 (complete control)", "summary_of_the_method": "as §4"}, "barnyardgrass [5]": {"test_system": "barnyardgrass", "assay": "Test B flooded paddy test", "assay_type": "in vivo, Echinochloa crus-galli", "settings": "1000 g ai/ha, scale 0 to 100 (0 no effect, 100 complete control)", "summary_of_the_method": "as §2"}, "pigweed": {"test_system": "pigweed", "assay": "Test B pre-/postemergence herbicide test", "assay_type": "in vivo, Amaranthus retroflexus", "settings": "for Pigweed plant response rating: scale 0 (no effect) to 100 (complete control)", "summary_of_the_method": "as §1"}, "barnyardgrass [6]": {"test_system": "barnyardgrass", "assay": "Test B pre-/postemergence herbicide test", "assay_type": "in vivo, Echinochloa crus-galli", "settings": "for Barnyardgrass plant response rating: postemergence", "summary_of_the_method": "as §3"}, "barnyardgrass [7]": {"test_system": "barnyardgrass", "assay": "Test C flooded paddy test", "assay_type": "in vivo, Echinochloa crus-galli", "summary_of_the_method": "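Weeds and wheat were sprayed after emergence, at a height of 2 to 18 cm (1–4 leaves), and paddy barnyardgrass was flooded and treated at two leaves. Assessment took place 12–14 days later in the greenhouse on a 0-to-100 visual control scale. A dash means no result was obtained.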"}, "corn": {"test_system": "corn", "assay": "Test B pre-/postemergence herbicide test", "assay_type": "in vivo, Zea mays", "settings": "for Corn plant response rating: postemergence", "summary_of_the_method": "as §1"}, "ducksalad [8]": {"test_system": "ducksalad", "assay": "Test C flooded paddy test", "assay_type": "in vivo, Heteranthera limosa"}, "large crabgrass": {"test_system": "large crabgrass", "assay": "Test B pre-/postemergence herbicide test", "assay_type": "in vivo, Digitaria sanguinalis", "settings": "for Crabgrass, Large plant response rating: postemergence", "summary_of_the_method": "as §1"}, "cocklebur": {"test_system": "cocklebur", "assay": "Test B pre-/postemergence herbicide test", "assay_type": "in vivo, Xanthium strumarium", "settings": "for Cocklebur plant response rating: postemergence", "summary_of_the_method": "as §3"}, "blackgrass": {"test_system": "blackgrass", "assay": "Test B postemergence herbicide test", "assay_type": "in vivo, Alopecurus myosuroides", "settings": "postemergence", "summary_of_the_method": "as §2"}, "rice [9]": {"test_system": "rice", "assay": "Test C flooded paddy test", "assay_type": "in vivo, Oryza sativa", "summary_of_the_method": "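Postemergence sprays applied to plants 2 to 18 cm tall (1- to 4-leaf stage); paddy species grown to 2-leaf stage under flooding. After 12 to 14 days in greenhouse, visual rating versus untreated controls on 0–100 scale (0 no effect, 100 complete control).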"}, "[10]": {"settings": "125 g ai/ha, visual rating, postemergence"}, "[11]": {"settings": "125 g ai/ha, 0 is no effect, 100 is complete control, preemergence"}, "[12]": {"settings": "125 g ai/ha, scale 0 to 100 (0 no effect, 100 complete control)"}, "[13]": {"settings": "250 g ai/ha, scale of 0 to 100, 0 is no effect, 100 is complete control"}, "[14]": {"settings": "125 g ai/ha, visual rating, scale 0 (no effect) to 100 (complete control)"}, "[15]": {"settings": "500 g ai/ha, scale 0 to 100, 0 is no effect, 100 is complete control"}, "[16]": {"settings": "500 g ai/ha, visual rating after 12 to 14 days, scale 0 to 100 (0 no effect, 100 complete control)"}},
  "data": [
    {"smiles": "CCc1nn(C(C)(C)CC)nc1C(=O)Nc1cc(C(=O)N(C)C)ccc1F", "note": "[Compound 368]", "values": [
      {"measurement": "Lambsquarters plant response rating", "setting": "lambsquarters; [10]", "result": 50},
      {"measurement": "Lambsquarters plant response rating", "setting": "lambsquarters; Postemergence, 500 g ai/ha", "result": 60},
      {"measurement": "Ducksalad plant response rating", "setting": "ducksalad [1]", "result": 90},
      {"measurement": "Plant response rating (0 to 100 scale), Morningglory", "setting": "morningglory; [11]", "result": 0},
      {"measurement": "Morningglory plant response rating", "setting": "morningglory; [10]", "result": 0},
      {"measurement": "Morningglory plant response rating", "setting": "morningglory; Postemergence, 500 g ai/ha", "result": 30},
      {"measurement": "Sedge, Umbrella plant response rating", "setting": "[2]", "result": 80},
      {"measurement": "Wheat plant response rating", "setting": "wheat; 125 g ai/ha, visual rating, scale 0 (no effect) to 100 (complete control), postemergence", "result": 0},
      {"measurement": "Wheat plant response rating", "setting": "wheat; 500 g ai/ha, scale 0 to 100, 0 no effect, 100 complete control, preemergence", "result": 10},
      {"measurement": "Wheat plant response rating", "setting": "wheat; Postemergence, 500 g ai/ha, scale 0 (no effect) to 100 (complete control)", "result": 0},
      {"measurement": "Sedge, Umbrella plant response rating", "setting": "[3]; 62 g ai/ha, scale 0 to 100", "result": 20},
      {"measurement": "Sedge, Umbrella plant response rating", "setting": "[3]; [12]", "result": 75},
      {"measurement": "Sedge, Umbrella plant response rating", "setting": "[3]; [13]", "result": 75},
      {"measurement": "Plant response rating (0 to 100 scale), Foxtail, Giant", "setting": "giant foxtail; [11]", "result": 20},
      {"measurement": "Foxtail, Giant plant response rating", "setting": "giant foxtail; [14]", "result": 0},
      {"measurement": "Foxtail, Giant plant response rating", "setting": "giant foxtail; [15]", "result": 10},
      {"measurement": "Plant response rating (0 to 100 scale), Surinam Grass", "setting": "Surinam grass; [11]", "result": 10},
      {"measurement": "Surinam Grass plant response rating", "setting": "Surinam grass; [10]", "result": 0},
      {"measurement": "Surinam Grass plant response rating", "setting": "Surinam grass; Postemergence, 500 g ai/ha", "result": 0},
      {"measurement": "Plant response rating (0 to 100 scale), Velvetleaf", "setting": "velvetleaf; [11]", "result": 0},
      {"measurement": "Velvetleaf plant response rating", "setting": "velvetleaf; [10]", "result": 10},
      {"measurement": "Velvetleaf plant response rating", "setting": "velvetleaf; Postemergence, 500 g ai/ha", "result": 20},
      {"measurement": "Rice plant response rating", "setting": "rice [4]", "result": 50},
      {"measurement": "Oat, Wild plant response rating", "setting": "wild oat; [10]", "result": 0},
      {"measurement": "Oat, Wild plant response rating", "setting": "wild oat; Postemergence, 500 g ai/ha", "result": 0},
      {"measurement": "Barnyardgrass plant response rating", "setting": "barnyardgrass [5]", "result": 60},
      {"measurement": "Plant response rating (0 to 100 scale), Pigweed", "setting": "pigweed; [11]", "result": 30},
      {"measurement": "Pigweed plant response rating", "setting": "pigweed; [10]", "result": 10},
      {"measurement": "Pigweed plant response rating", "setting": "pigweed; Postemergence, 500 g ai/ha", "result": 50},
      {"measurement": "Plant response rating (0 to 100 scale), Barnyardgrass", "setting": "barnyardgrass [6]; [11]", "result": 40},
      {"measurement": "Barnyardgrass plant response rating", "setting": "barnyardgrass [6]; [14]", "result": 0},
      {"measurement": "Barnyardgrass plant response rating", "setting": "barnyardgrass [6]; [15]", "result": 10},
      {"measurement": "Barnyardgrass plant response rating", "setting": "barnyardgrass [7]; 62 g ai/ha, scale 0 to 100 (0 no effect, 100 complete control)", "result": 0},
      {"measurement": "Barnyardgrass plant response rating", "setting": "barnyardgrass [7]; [12]", "result": 0},
      {"measurement": "Barnyardgrass plant response rating", "setting": "barnyardgrass [7]; [13]", "result": 0},
      {"measurement": "Plant response rating, Barnyardgrass", "setting": "barnyardgrass [7]; [16]", "result": 30},
      {"measurement": "Plant response rating (0 to 100 scale), Corn", "setting": "corn; [11]", "result": 0},
      {"measurement": "Corn plant response rating", "setting": "corn; [14]", "result": 0},
      {"measurement": "Corn plant response rating", "setting": "corn; [15]", "result": 10},
      {"measurement": "Ducksalad plant response rating", "setting": "ducksalad [8]; 62 g ai/ha, scale 0 to 100", "result": 0},
      {"measurement": "Ducksalad plant response rating", "setting": "ducksalad [8]; [12]", "result": 80},
      {"measurement": "Ducksalad plant response rating", "setting": "ducksalad [8]; [13]", "result": 90},
      {"measurement": "Plant response rating (0 to 100 scale), Crabgrass, Large", "setting": "large crabgrass; [11]", "result": 10},
      {"measurement": "Crabgrass, Large plant response rating", "setting": "large crabgrass; [14]", "result": 10},
      {"measurement": "Crabgrass, Large plant response rating", "setting": "large crabgrass; [15]", "result": 10},
      {"measurement": "Plant response rating (0 to 100 scale), Cocklebur", "setting": "cocklebur; [11]", "result": 0},
      {"measurement": "Cocklebur plant response rating", "setting": "cocklebur; [14]", "result": 20},
      {"measurement": "Cocklebur plant response rating", "setting": "cocklebur; [15]", "result": 30},
      {"measurement": "Blackgrass plant response rating", "setting": "blackgrass; [14]", "result": 0},
      {"measurement": "Blackgrass plant response rating", "setting": "blackgrass; [15]", "result": 10},
      {"measurement": "Rice plant response rating", "setting": "rice [9]; 62 g ai/ha, scale 0 to 100", "result": 20},
      {"measurement": "Rice plant response rating", "setting": "rice [9]; [12]", "result": 45},
      {"measurement": "Rice plant response rating", "setting": "rice [9]; [13]", "result": 60},
      {"measurement": "Plant response rating, Rice", "setting": "rice [9]; [16]", "result": 70}
    ]}
  ]
}
